Measurements taken from patent US8535741B2, “Method and composition for administering bioactive compounds derived from Morinda citrifolia” (priority 2006, dated 2013).

Key:
[1] = molecular target: Adenosine A2A (Homo sapiens, UniProt P29274); assay: bio-assay on Adenosine A2A; conditions: isolated from squeezed juice of fresh Morinda citrifolia leaf
Source text: Their structures have been determined by NMR techniques and mass spectrometry and they have been identified as Pyro-phorbide a, Pheoporbide a, Purpin 7, and Pheophorbide Phytolester. The isolation and characterization of the above referenced bioactive compounds provides a significant explanation for the anti-inflammatory and analgesic properties of extracts derived from the Morinda citrifolia plant, particularly from the leaf of the plant.

[2] = system: human epidermoid carcinoma cell line-A431; assay: cells; type: cell-based; conditions: for Percent Grown: A431, 72-hour exposure
Description: In this example, assays were performed to detect changes in cell proliferation based on the ability of viable cells to cause alamarBlue to change from non-fluorescent blue to a reduced, fluorescent red form. With the results obtained from the alamarBlue reaction, cell proliferation can be quantified and metabolic activity of viable cells can be examined. Test compounds including Morinda citrifolia leaf extract, leaf juice, and roast leaf were tested for their effects on the proliferation of human epidermoid carcinoma cell line-A431 at assay concentrations from 0.01 to 100 μg/ml or 0.0001% to 1% through serial 10-fold dilutions.
Morinda citrifolia leaf extract, leaf juice, and roast leaf were provided by Tahitian Noni International, Inc. for in vitro anti-tumor studies. The Morinda citrifolia compounds were dissolved in sterile distilled water and then diluted with sterile distilled water to obtain initial working solutions of 10000, 1000, 100, 10, and 1 μg/ml for the leaf extract and roast leaf, as well as 100, 10, 1, 0.1 and 0.01% for the leaf juice. In testing, 100-fold dilution was made in culture media to get final assay concentrations of 100, 10, 1, 0.1 and 0.01 μg/ml, and 1, 0.1, 0.01, 0.001 and 0.0001%, respectively.
The tumor cell line, A431 (human epidermoid carcinoma), obtained from American Type Culture Collection (ATCC CRL-1555), was incubated in an air atmosphere of 5% CO2 at 37° C. The culture medium was used with Dulbecco's Modified Eagle's medium, 90%; Fetal Bovine Serum, 10% and supplemented with 1% Antibiotic-Antimycotic.
The anti-proliferation for the test substances was evaluated. Aliquots of 100 µl of cell suspension (about 3×10^3/well) were placed in 96-well microtiter plates in an atmosphere of 5% CO2 at 37° C. […] Two test compounds, leaf extract and roast leaf, were evaluated at concentrations of […]. The other compound, leaf juice, was evaluated at concentrations of 1, 0.1, 0.01, 0.001 and 0.0001%. At the end of incubation, 20 µl of 90% alamarBlue reagent was added to each well for another 6-hour incubation before detection of cell viability by fluorescent intensity. Fluorescent intensity was measured using a Spectrafluor Plus plate reader with excitation at 530 nm and demission at 590 nm.
IC50, TGI, and LC50 values were then determined. […] TGI (Total Growth Inhibition) is the test compound concentration where the number or mass of treated cells at the end of the experiment was equal to that at time0. […] The measured results were calculated by the following formula: PG(%)=100×(Mean Ftest−Mean Ftime0)^/(Mean Fctr l−Mean Ftime0)
If (Mean Ftest−Mean Ftime0)^<0, then PG(%)−100×(Mean Ftest−Mean Ftime0)/(Mean Ftime0−Mean Fblank)
Where: PG=percent growth; Mean Ftime0=The average of 2 measured fluorescent intensities of reduced alamarBlue at the time just before exposure of cells to the test substance; Mean Ftest=The average of 2 measured fluorescent intensities of alamarBlue after 72-hour exposure of cells to the test substance; Mean Fctrl=The average of 2 measured fluorescent intensities of alamarBlue after 72-hour incubation without the test substance; and Mean Fblank=The average of 2 measured fluorescent intensities of alamarBlue in medium without cells after 72-hour incubation.
A decrease of 50% or more (≧50%) in fluorescent intensity relative to the vehicle-treated control indicated significant cell growth inhibition, cytostatic or cytotoxic activity, and a semi-quantitative IC50, TGI, and LC50 were then determined by nonlinear regression using GraphPad Prism (GraphPad Software, USA).

Adenosine A2A, sequence (P29274 whole entry): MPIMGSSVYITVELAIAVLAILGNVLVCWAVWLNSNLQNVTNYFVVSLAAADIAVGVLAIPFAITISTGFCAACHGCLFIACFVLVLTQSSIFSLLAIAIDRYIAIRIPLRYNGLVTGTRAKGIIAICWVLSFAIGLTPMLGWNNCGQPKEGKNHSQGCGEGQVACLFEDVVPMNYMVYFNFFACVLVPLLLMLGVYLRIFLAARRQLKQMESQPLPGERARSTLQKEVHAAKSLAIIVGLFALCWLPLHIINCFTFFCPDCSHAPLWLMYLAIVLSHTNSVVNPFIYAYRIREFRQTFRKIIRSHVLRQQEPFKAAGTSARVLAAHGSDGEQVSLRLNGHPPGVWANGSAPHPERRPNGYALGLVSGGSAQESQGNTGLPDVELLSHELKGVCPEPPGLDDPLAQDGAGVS

**Q.** For Pheophorbide Phytolester, which “bioactivity in bio-assay on Adenosine A2A” value (“bioactivity in bio-assay” below) [1] is on record?
**A.** significant bioactivity

**Q.** Purpin 7 was tested. Which “bioactivity in bio-assay” value [1] did it give?
**A.** significant bioactivity

**Q.** Which “bioactivity in bio-assay” value [1] does the source give for Pheoporbide a here?
**A.** significant bioactivity

**Q.** With Pyro-phorbide a as the compound, how does the “bioactivity in bio-assay” value [1] read?
**A.** significant bioactivity

**Q.** With CO[C@@]12[C@H](COC(N)=O)C3=C(C(=O)C(C)=C(N)C3=O)N1C[C@@H]1N[C@@H]12 [Mitomycin] as the compound, how does the “Percent Grown” value ([2]; Concentration 0.001 (ttM)) read?
**A.** 101 +/− 5%

**Q.** What about the “Percent Grown” value ([2]; Concentration 0.01 (ttM)) of the same compound?
**A.** 82 +/− 3%

**Q.** And the “Percent Grown” value ([2]; Concentration 0.1 (ttM))?
**A.** 7 +/− 3%

**Q.** And the “Percent Grown” value ([2]; Concentration 1 (ttM))?
**A.** 35 +/− 8%

**Q.** And the “Percent Grown” value ([2]; Concentration 10 (ttM))?
**A.** 97 +/− 0%

**Q.** What about the IC50 ([2]; Homo sapiens, A-431, Tumor, Skin (A431), semi-quantitative, nonlinear regression, read-out: IC50 (50% Inhibition Concentration)) of the same compound?
**A.** 35 nM

**Q.** What about the “TGI (Total Growth Inhibition)” value ([2]; Tumor, Skin (A431), semi-quantitative, nonlinear regression) of the same compound?
**A.** 0.19 µM

**Q.** What about the “inhibitory activity on tumor cell growth” value ([2]; at <10 p.M, A431) of the same compound?
**A.** Significant inhibitory activity
